Values quoted from earlier work as cited in paper PMC11693862 (Acta Biochimica et Biophysica Sinica, 2024).

What was measured:
SARS-CoV and HCoV-229E = settings: cited from earlier work
[1] = in vivo; cited from earlier work
[2] = tested on: Mpros of HCoV-NL63, HCoV-HUK1, MERS-CoV, and SARS-CoV; settings: cited from earlier work

## COc1cccc2[nH]c(C(=O)NC(CC(C)C)C(=O)NC(CC3CCNC3=O)C(=O)CO)cc12 (stereo not drawn) [PF-00835231]
SARS-CoV and HCoV-229E
  Antiviral activity, semi-maximum effective concentration (EC50): very low
[1]
  Oral bio-availability: relatively poor
[2]
  Inhibition of Mpros of HCoV-NL63, HCoV-HUK1, MERS-CoV, and SARS-CoV: inhibits
